Patent publication US11155560B2, “Substituted pyrazolo[1,5-a]pyrimidines for modulating CDK9 activity” (Kronos Bio, Inc., priority 2018, dated 2021)

Biological target: T1, CDK9/cyclin T1 (Homo sapiens, UniProt P50750)
Test: CDK9/cyclin T1 kinase inhibition, LANCE assay
Format: biochemical
Conditions: reaction time 60 minutes, 10 μM ATP, 10-dose IC50, compounds 35-126 (127-208 listed, method not stated), read-out: CDK9/cyclin T1 Potency Grade
Method: Exemplary compounds of the invention (35-126) were tested for inhibition of CDK9/cyclin T1 kinase. Using a LANCE assay (reaction time 60 minutes), the compounds were tested in 10-dose IC50 duplicate mode with a 3-fold serial dilution starting at 4.3 μM. […] Reactions were carried out at 10 μM ATP. Data was normalized to positive and negative controls and curve fits were analyzed with XLFIT5 as % inhibition vs. log [compound concentration] using a 4-parameter logistic model205. Fit=(A+((B−A)/(1+((C/x)^D)))); Res =(y-fit).

T1 sequence (P50750 whole entry): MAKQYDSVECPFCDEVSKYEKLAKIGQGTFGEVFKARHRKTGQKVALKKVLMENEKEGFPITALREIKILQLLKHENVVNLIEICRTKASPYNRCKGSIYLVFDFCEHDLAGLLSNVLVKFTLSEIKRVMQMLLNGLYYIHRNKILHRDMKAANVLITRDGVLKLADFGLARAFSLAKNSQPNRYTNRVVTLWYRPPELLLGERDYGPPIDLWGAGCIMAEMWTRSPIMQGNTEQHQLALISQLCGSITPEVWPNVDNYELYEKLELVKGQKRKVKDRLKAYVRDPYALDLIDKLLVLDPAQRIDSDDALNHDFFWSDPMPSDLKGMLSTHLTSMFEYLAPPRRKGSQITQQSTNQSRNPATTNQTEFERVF
T1 sequence (O60563 whole entry partner): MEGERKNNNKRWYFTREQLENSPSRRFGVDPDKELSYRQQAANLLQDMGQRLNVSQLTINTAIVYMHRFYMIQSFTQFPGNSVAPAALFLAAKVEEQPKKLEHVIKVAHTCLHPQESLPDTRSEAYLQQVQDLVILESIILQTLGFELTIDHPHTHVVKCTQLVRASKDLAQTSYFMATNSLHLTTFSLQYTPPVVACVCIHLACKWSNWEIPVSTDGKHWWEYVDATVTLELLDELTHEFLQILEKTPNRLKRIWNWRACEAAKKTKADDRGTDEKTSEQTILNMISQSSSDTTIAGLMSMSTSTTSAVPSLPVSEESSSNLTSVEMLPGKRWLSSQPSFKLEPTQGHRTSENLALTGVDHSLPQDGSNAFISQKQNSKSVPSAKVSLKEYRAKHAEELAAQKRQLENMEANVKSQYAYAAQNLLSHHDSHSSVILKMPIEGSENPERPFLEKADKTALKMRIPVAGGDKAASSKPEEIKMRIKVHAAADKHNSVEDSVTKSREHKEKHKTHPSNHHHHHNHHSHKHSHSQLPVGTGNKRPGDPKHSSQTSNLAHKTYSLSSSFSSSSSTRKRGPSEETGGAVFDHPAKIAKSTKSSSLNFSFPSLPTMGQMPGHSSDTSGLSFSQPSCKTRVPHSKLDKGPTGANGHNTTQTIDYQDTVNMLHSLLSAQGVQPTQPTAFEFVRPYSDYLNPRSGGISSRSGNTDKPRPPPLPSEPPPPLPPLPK

| Structure (SMILES) | IC50 [µM] |
| --- | --- |
| CC(C)c1cc(N[C@@H]2CC[C@@H](NC=O)C2)n2nccc2n1 [Compound 137] | 0.001 to 0.5 |
| CCc1cc(N[C@H]2CC[C@H](N)C2)n2nccc2n1 [Compound 138] | 0.001 to 0.5 |
| CC(C)OC(=O)N[C@@H]1CC[C@@H](Nc2cc(C(C)C)nc3ccnn23)C1 [Compound 140] | 0.001 to 0.5 |
| CC(C)c1cc(N[C@@H]2CC[C@@H](NC(=O)OCc3ccccc3)C2)n2nccc2n1 [Compound 141] | 0.001 to 0.5 |
| O=CN[C@@H]1CC[C@@H](Nc2cc(C3CC3)nc3ccnn23)C1 [Compound 142] | 0.001 to 0.5 |
| CCC(C)c1cc(N[C@@H]2CC[C@@H](NC=O)C2)n2nccc2n1 (some centres unmarked) [Compound 143] | 0.001 to 0.5 |
| COC(=O)N[C@@H]1CC[C@@H](Nc2cc(C(C)C)nc3ccnn23)C1 [Compound 145] | 0.001 to 0.5 |
| CC(C)c1cc(N[C@@H]2CC[C@@H](N(C)C=O)C2)n2nccc2n1 [Compound 146] | 0.001 to 0.5 |
| CCC(CC)c1cc(N[C@H]2CC[C@H](NC(=O)c3cnc(C)cn3)C2)n2nccc2n1 [Compound 148] | 0.001 to 0.5 |
| CCC(CC)c1cc(N[C@H]2CC[C@H](Nc3ccccn3)C2)n2nccc2n1 [Compound 149] | 0.001 to 0.5 |
| COCCN[C@@H]1CC[C@@H](Nc2cc(C(C)C)nc3ccnn23)C1 [Compound 150] | 0.001 to 0.5 |
| CC(C)c1cc(N[C@@H]2CC[C@@H](N(O)C(N)=O)C2)n2nccc2n1 [Compound 151] | 0.001 to 0.5 |
| N[C@H]1CC[C@H](Nc2cc(-c3ccc4c(c3)OCO4)nc3ccnn23)C1 [Compound 152] | 0.001 to 0.5 |
| CCC(CC)c1cc(N[C@H]2CC[C@H](N(C)CCOC)C2)n2nccc2n1 [Compound 153] | 0.001 to 0.5 |
| CN/C(=N/C#N)N[C@@H]1CC[C@@H](Nc2cc(C(C)C)nc3ccnn23)C1 [Compound 154] | 0.001 to 0.5 |
| CC(C)c1cc(N[C@H]2CC[C@H](N)C2)n2ncc(C#N)c2n1 [Compound 155] | 0.001 to 0.5 |
| N[C@H]1CC[C@H](Nc2cc(N3CCCCC3)nc3ccnn23)C1 [Compound 156] | 0.001 to 0.5 |
| CC(C)c1cc(N[C@@H]2CC[C@@H](NC(=N)N)C2)n2nccc2n1 [Compound 157] | 0.001 to 0.5 |
| CC(C)c1cc(N[C@@H]2CC[C@@H](NC(=O)OCc3ccccc3)C2)n2ncc(Cl)c2n1 [Compound 158] | 0.001 to 0.5 |
| CC(C)OC(=O)N[C@@H]1CC[C@@H](Nc2cc(C(C)C)nc3c(Cl)cnn23)C1 [Compound 159] | 0.501 to 1 |
| N[C@H]1CC[C@H](Nc2cc(-c3ccc4ccccc4c3)nc3ccnn23)C1 [Compound 160] | 0.501 to 1 |
| COc1cc(C)cc(-c2cc(N[C@H]3CC[C@H](N)C3)n3nccc3n2)c1 [Compound 161] | 0.001 to 0.5 |
| N[C@H]1CC[C@H](Nc2cc(Nc3ccc4ccccc4c3)nc3ccnn23)C1 [Compound 162] | 0.001 to 0.5 |
| N[C@H]1CC[C@H](Nc2cc(N3CCOCC3)nc3ccnn23)C1 [Compound 163] | 0.001 to 0.5 |
| Cc1cccc(-c2cc(N[C@H]3CC[C@H](N)C3)n3nccc3n2)c1 [Compound 164] | 0.001 to 0.5 |
| COc1cc(Cl)cc(-c2cc(N[C@H]3CC[C@H](N)C3)n3nccc3n2)c1 [Compound 165] | 0.001 to 0.5 |
| N[C@H]1CC[C@H](Nc2cc(-c3cccc(Cl)c3)nc3ccnn23)C1 [Compound 166] | 0.001 to 0.5 |

| Structure (SMILES) | IC50 [µM] |
| --- | --- |
| COc1cc(N[C@@H]2CC[C@@H](N)C2)n2nccc2n1 [Compound 168] | 0.501 to 1 |
| Cn1cncc1-c1cc(N[C@H]2CC[C@H](NC=O)C2)n2nccc2n1 [Compound 169] | 0.501 to 1 |
| CCN(CC)c1cc(N[C@H]2CC[C@H](N)C2)n2nccc2n1 [Compound 170] | 0.001 to 0.5 |
| N[C@H]1CC[C@H](Nc2cc(Nc3cccc4ccccc34)nc3ccnn23)C1 [Compound 171] | 0.001 to 0.5 |
| N[C@H]1CC[C@H](Nc2cc(-c3cccc4ccccc34)nc3ccnn23)C1 [Compound 172] | 0.001 to 0.5 |
| N[C@H]1CC[C@H](Nc2cc(-c3cc(Cl)cc(Cl)c3)nc3ccnn23)C1 [Compound 173] | 0.001 to 0.5 |
| Cn1cncc1-c1cc(N[C@H]2CC[C@H](N)C2)n2nccc2n1 [Compound 174] | 0.001 to 0.5 |
| O=C(N[C@H]1CC[C@H](Nc2cc(C3CC3)nc3ccnn23)C1)OCc1ccccc1 [Compound 175] | > 1 |
| Cc1cnn2c(N[C@@H]3CC[C@@H](NC(=O)OC(C)C)C3)cc(C(C)C)nc12 [Compound 176] | 0.001 to 0.5 |
| CC(C)N(C)c1cc(N[C@H]2CC[C@H](N)C2)n2nccc2n1 [Compound 177] | 0.001 to 0.5 |
| Cc1cnn2c(N[C@@H]3CC[C@@H](NC(=O)OCc4ccccc4)C3)cc(C(C)C)nc12 [Compound 178] | 0.001 to 0.5 |
| COCCNc1cc(N[C@H]2CC[C@H](N)C2)n2nccc2n1 [Compound 179] | 0.501 to 1 |
| COC(=O)N[C@H]1CC[C@H](Nc2cc(C3CC3)nc3ccnn23)C1 [Compound 180] | > 1 |
| CN(CCO)c1cc(N[C@H]2CC[C@H](N)C2)n2nccc2n1 [Compound 181] | 0.001 to 0.5 |
| CCOc1cc(N[C@H]2CC[C@H](N)C2)n2nccc2n1 [Compound 182] | 0.501 to 1 |
| CC(C)c1cc(N[C@H]2CC[C@H](N)C2)n2nc(N)cc2n1 [Compound 183] | > 1 |
| Cc1cnn2c(N[C@H]3CC[C@H](N)C3)cc(CC(C)C)nc12 [Compound 184] | 0.001 to 0.5 |
| CN(Cc1ccccc1)c1cc(N[C@H]2CC[C@H](N)C2)n2nccc2n1 [Compound 188] | 0.001 to 0.5 |
| CCNc1cc(N[C@H]2CC[C@H](N)C2)n2nccc2n1 [Compound 189] | 0.001 to 0.5 |
| N[C@H]1CC[C@H](Nc2cc(-c3ccc4c(c3)OCO4)nc3c(Cl)cnn23)C1 [Compound 195] | 0.001 to 0.5 |
| Cc1cc(C)cc(-c2cc(N[C@H]3CC[C@H](N)C3)n3nccc3n2)c1 [Compound 196] | 0.001 to 0.5 |
| CC(C)c1ccc(-c2cc(N[C@H]3CC[C@H](N)C3)n3nccc3n2)cc1 [Compound 199] | 0.001 to 0.5 |
| N[C@H]1CC[C@H](Nc2cc(C3=CCCCC3)nc3ccnn23)C1 [Compound 200] | 0.001 to 0.5 |
| CC(C)(C#N)c1ccc(-c2cc(N[C@H]3CC[C@H](N)C3)n3nccc3n2)cc1 [Compound 204] | 0.001 to 0.5 |
| N[C@H]1CC[C@H](Nc2cc(-c3ccc(C4CC4)cc3)nc3ccnn23)C1 [Compound 205] | 0.001 to 0.5 |
| N[C@H]1CC[C@H](Nc2cc(C3CCCCC3)nc3ccnn23)C1 [Compound 206] | 0.001 to 0.5 |
| CC1(C)CC1c1cc(N[C@H]2CC[C@H](N)C2)n2nccc2n1 (some centres unmarked) [Compound 208] | 0.001 to 0.5 |

Biological target: T1, CDK9/cyclin T1
Test: CDK9/cyclin T1 inhibition, radiometric assay
Format: biochemical
Conditions: read-out: CDK9/cyclin T1 Potency Grade
Method: Exemplary compounds of the invention (1-34) were tested for inhibition of CDK9/cyclin T1. […] Reactions were carried out at 10 μM ATP. Data was normalized to positive and negative controls and curve fits were executed with GraphPad software and were performed where the enzyme activities at the highest concentration of compounds were less than 65%.

| Structure (SMILES) | IC50 [µM] |
| --- | --- |
| Cc1cc(NC2CCCC2)n2nccc2n1 [Compound 1, N-cyclopentyl-5-methyl-pyrazolo[1,5-a]pyrimidin-7-amine] | > 1 |
| CC(C)c1cc(NC2CCCC2)n2nccc2n1 [Compound 2, N-cyclopentyl-5-isopropyl-pyrazolo[1,5-a]pyrimidin-7-amine] | 0.001 to 0.5 |
| CCC(C)c1cc(NC2CCCC2)n2nccc2n1 (centres unmarked) [Compound 3, N-cyclopentyl-5-sec-butyl-pyrazolo[1,5-a]pyrimidin-7-amine] | 0.001 to 0.5 |
| Cc1cc(N[C@H]2CC[C@H](N)CC2)n2nccc2n1 [Compound 4, [4-[(5-methylpyrazolo[1,5-a]pyrimidin-4-ium-7-yl)amino]cyclohexyl]ammonium dichloride] | 0.501 to 1 |
| c1cc2nc(C3CCCC3)cc(NC3CCCC3)n2n1 [Compound 5, N,5-dicyclopentylpyrazolo[1,5-a]pyrimidin-7-amine] | 0.001 to 0.5 |
| CCC(C)c1cc(N[C@H]2CC[C@H](N)CC2)n2nccc2n1 (some centres unmarked) [Compound 7, [4-[(5-sec-butylpyrazolo[1,5-a]pyrimidin-4-ium-7-yl)amino]cyclohexyl]ammonium dichloride] | 0.001 to 0.5 |
| N[C@H]1CC[C@H](Nc2cc(C3CCCC3)nc3ccnn23)CC1 [Compound 8, [4-[(5-cyclopentylpyrazolo[1,5-a]pyrimidin-4-ium-7-yl)amino]cyclohexyl]ammonium dichloride] | 0.001 to 0.5 |
| N[C@H]1CC[C@H](Nc2cc(C3CCCC3)nc3ccnn23)C1 [Compound 9, [(1S,3S)-3-[(5-cyclopentylpyrazolo[1,5-a]pyrimidin-4-ium-7-yl)amino]cyclopentyl]ammonium dichloride] | 0.001 to 0.5 |
| Cc1cc(N[C@@H]2CC[C@H](N)C2)n2nccc2n1 [Compound 10, [(1S,3R)-3-[(5-methylpyrazolo[1,5-a]pyrimidin-4-ium-7-yl)amino]cyclopentyl]ammonium dichloride] | > 1 |
| Cc1cc(N[C@H]2C[C@H](N)C2)n2nccc2n1 [Compound 11, [3-[(5-methylpyrazolo[1,5-a]pyrimidin-4-ium-7-yl)amino]cyclobutyl]ammonium dichloride] | 0.501 to 1 |
| Cc1cc(N[C@H]2CC[C@@H](N)C2)n2nccc2n1 [Compound 12, [(1R,3S)-3-[(5-methylpyrazolo[1,5-a]pyrimidin-4-ium-7-yl)amino]cyclopentyl]ammonium dichloride] | 0.501 to 1 |
| N[C@H]1CC[C@@H](Nc2cc(C3CCCC3)nc3ccnn23)C1 [Compound 15, (1 S,3R)—N3-(5-cyclopentylpyrazolo[1,5-a]pyrimidin-7-yl)cyclopentane-1,3-diamine] | 0.001 to 0.5 |
| CCC(C)c1cc(N[C@H]2C[C@H](N)C2)n2nccc2n1 (some centres unmarked) [Compound 19, N1-(5-sec-butylpyrazolo[1,5-a]pyrimidin-7-yl)cyclobutane-1,3-diamine] | 0.001 to 0.5 |
| N[C@H]1C[C@H](Nc2cc(C3CCCC3)nc3ccnn23)C1 [Compound 20, N1-(5-cyclopentylpyrazolo[1,5-a]pyrimidin-7-yl)cyclobutane-1,3-diamine] | 0.001 to 0.5 |
